# Reference: patent US20210154190A1, “SHP2 INHIBITOR COMPOSITIONS AND METHODS FOR TREATING CANCER” (Revolution Medicines, Inc., priority 2018, published 2021)
# Residue numbers refer to the chain shown, from its start. Values joined by “and” are separate entries in the source; they are usually repeats but may differ in a detail not shown here. Equal values may be shown once. Read-outs that look alike come from different tables or passages of the source.
# How the values were obtained:
# Format in all cases: biochemical
# human SHP2-FL S502P = target: T1, human SHP2-FL S502P (Homo sapiens, UniProt Q06124, S502P); experiment: SHP2 allosteric inhibition assay (DiFMUP), S502P
# T1 sequence (Q06124 1-593 S502P): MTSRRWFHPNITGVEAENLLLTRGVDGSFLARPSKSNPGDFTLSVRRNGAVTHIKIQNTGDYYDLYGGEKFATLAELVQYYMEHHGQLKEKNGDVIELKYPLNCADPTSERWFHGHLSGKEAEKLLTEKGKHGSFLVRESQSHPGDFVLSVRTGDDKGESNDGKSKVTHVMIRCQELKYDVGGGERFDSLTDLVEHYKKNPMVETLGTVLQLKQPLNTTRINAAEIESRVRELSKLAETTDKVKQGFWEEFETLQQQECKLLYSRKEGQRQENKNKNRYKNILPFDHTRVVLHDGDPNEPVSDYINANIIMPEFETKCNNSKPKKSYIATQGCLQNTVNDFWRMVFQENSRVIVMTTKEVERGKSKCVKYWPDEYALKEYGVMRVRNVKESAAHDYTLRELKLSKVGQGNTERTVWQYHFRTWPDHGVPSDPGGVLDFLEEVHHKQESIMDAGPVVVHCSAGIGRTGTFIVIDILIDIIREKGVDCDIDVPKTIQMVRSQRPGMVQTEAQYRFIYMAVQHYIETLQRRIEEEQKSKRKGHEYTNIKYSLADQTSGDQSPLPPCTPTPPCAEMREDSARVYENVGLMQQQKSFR
# Procedure: (§1) Full-length SHP2 is allosterically activated through binding of bis-tyrosyl-phorphorylated peptides to its Src Homology 2 (SH2) domains. The latter activation step leads to the release of the auto-inhibitory interface of SHP2, which in turn renders the SHP2 protein tyrosine phosphatase (PTP) active and available for substrate recognition and reaction catalysis. The catalytic activity of SHP2 was monitored using the surrogate substrate DiFMUP in a prompt fluorescence assay format.
# (§2) […] […] 50 μl stop solution (0.1 mM sodium pervanadate) was added to each well, the plate was shaken briefly to mix, and read in endpoint mode on a SpectraMax M5 plate reader (Molecular Devices) using excitation and emission wavelengths of 340 nm and 450 nm. Data was imported into GraphPad Prism. Plots of fluorescence intensity vs. log Molar [compound] were created and modeled with a 3-parameter sigmoidal concentration response equation in order to estimate IC50.
# (§3) Reactions were then allowed to proceed for 30 minutes and stopped by the addition of a phosphatase inhibitor, sodium pervanadate. De-phosphorylation of DiFMUP results in production of a fluorescent product. Product fluorescence was determined and plotted as a function of compound concentration in order to determine the IC50 for each compound on each mutant using a four parameter sigmoidal dose response function in Prism (GraphPad).
# (§4) NsCs mimics the role of the cytosolic domain of a protein tyrosine kinase in this model system.
# human SHP2-FL wild type = target: T2, human SHP2-FL wild type (Homo sapiens, UniProt Q06124); experiment: SHP2 allosteric inhibition assay (DiFMUP), wild type
# T2 sequence (Q06124 1-593): T1 sequence (Q06124 1-593 S502P) with P502S
# Procedure: as §1, §2, §3, §4
# human SHP2-FL F285S = target: T3, human SHP2-FL F285S (Homo sapiens, UniProt Q06124, F285S); experiment: SHP2 allosteric inhibition assay (DiFMUP), F285S
# T3 sequence (Q06124 1-593 F285S): T1 sequence (Q06124 1-593 S502P) with F285S, P502S
# Procedure: as §1, §2, §3, §4
SMILES,"IC50 (human SHP2-FL S502P; IC50 (nM), SHP2 S502P 0.5 μM NsCs peptide (Activated), human SHP2-FL S502P in presence of 0.5 μM NsCs peptide (activated))","IC50 (human SHP2-FL S502P; human SHP2-FL S502P alone, no peptide (non-activated), read-out: IC50 (nM), SHP2 S502P No Peptide Control (Non-Activated))","IC50 (human SHP2-FL S502P; human SHP2-FL S502P alone, no peptide (non-activated), read-out: pIC50, SHP2 S502P No Peptide Control (Non-Activated) (converted))","IC50 (human SHP2-FL S502P; pIC50, SHP2 S502P 0.5 μM NsCs peptide (Activated), human SHP2-FL S502P in presence of 0.5 μM NsCs peptide (activated))","IC50 (human SHP2-FL wild type; Wild-type SHP2, 0.5 μM NsCs peptide (Activated), read-out: IC50)","IC50 (human SHP2-FL wild type; Wild-type SHP2, 0.5 μM NsCs peptide (Activated), read-out: pIC50 (converted))","IC50 (human SHP2-FL wild type; Wild-type SHP2, No Peptide Control (Non-Activated), read-out: IC50)","IC50 (human SHP2-FL wild type; Wild-type SHP2, No Peptide Control (Non-Activated), read-out: pIC50 (converted))","IC50 (human SHP2-FL F285S; IC50 (nM), SHP2 F285S 0.5 μM NsCs peptide (Activated), human SHP2-FL F285S, 0.5 μM NsCs peptide (activated))","IC50 (human SHP2-FL F285S; human SHP2-FL F285S alone, no peptide (non-activated), read-out: IC50 (nM), SHP2 F285S No Peptide Control (Non-Activated))","IC50 (human SHP2-FL F285S; human SHP2-FL F285S alone, no peptide (non-activated), read-out: pIC50, SHP2 F285S No Peptide Control (Non-Activated) (converted))","IC50 (human SHP2-FL F285S; pIC50, SHP2 F285S 0.5 μM NsCs peptide (Activated), human SHP2-FL F285S, 0.5 μM NsCs peptide (activated))",Biochemical sensitivity (human SHP2-FL S502P; Variant S502P),Biochemical sensitivity (human SHP2-FL wild type; Variant WT),Biochemical sensitivity (human SHP2-FL F285S; Variant F285S)
Nc1nc(N2CCC3(CCC[C@H]3N)CC2)cnc1Sc1ccnc(Cl)c1Cl [Compound 1],> 10000 nM,237 nM and 227 nM and 221 nM and 308 nM,234 nM and 229 nM and 219 nM and 309 nM,> 10000 nM,2.62 nM and 2.69 nM and 2.12 nM and 2.37 nM,2.63 nM and 2.69 nM and 2.14 nM and 2.34 nM,2.01 nM and 2.43 nM and 1.36 nM and 2.24 nM,2 nM and 2.45 nM and 1.35 nM and 2.24 nM,3.76 nM and 9.08 nM and 8.38 nM and 15.1 nM,1.57 nM and 1.55 nM and 1.04 nM and 1.19 nM,1.55 nM and 1.05 nM and 1.2 nM,3.72 nM and 9.12 nM and 8.32 nM and 15.1 nM,–,–,–
Cc1nc(N2CCC3(CC2)CO[C@@H](C)[C@H]3N)c(CO)nc1-c1cccc(Cl)c1Cl [Compound B],–,–,–,–,–,–,–,–,–,–,–,–,no (Sensitive if IC50 < 2000 nM),yes (Sensitive if IC50 < 2000 nM),yes (Sensitive if IC50 < 2000 nM)
